In one assay the target is c-MET kinase (Homo sapiens (Human), UniProt P08581). Description: Assay of small molecular compounds for inhibiting the activity of c-MET kinase (LANCE TR-FRET). It counts as biochemical. The note with it: c-MET tyrosine kinase, 60 min reaction. As for the experimental part: Biological Example 1. Assay of Small Molecular Compounds for Inhibiting the Activity of c-MET Kinase
(§1) The assay is based on the LANCE TR-FRET technology of Perkin Elmer Inc., and the assay method is as follows:
(§2) 1. Dilution of compounds: a total of 11 concentrations were obtained using a 3-fold gradient dilution from the highest concentration of 2500 nM (the maximum final concentration of the drug used in this assay was 2500 nM, and the minimum final concentration was 0.042 nM).
(§3) 2. 2.5 μL of the gradient-diluted compounds were taken with a transfer pipette to a 384-well plate.
3. Addition of enzyme: 5 μL of 2× c-MET kinase solution (concentration was 2 nM) was taken with a transfer pipette to the corresponding reaction well of the 384-well plate, mixed well and pre-reacted at room temperature for 5 minutes.
4. 2.5 μL 4× Ultra ULight™-JAK-1 (Tyr1023) Peptide (concentration was 400 nM)/ATP (concentration was 40 μM) mixture was taken with a transfer pipette to the corresponding reaction well of the 384-well plate.
(§4) 5. Negative control: 2.5 μL/well 4× substrate/ATP mixture and 7.5 μL 1× Kinase Assay Buffer were added to the wells of the 384-well plate.
6. Positive control: 2.5 μL/well 4× substrate/ATP mixture, 2.5 μL/well 1× Kinase Assay Buffer containing 16% DMSO, and 5 µL/well 2× c-MET kinase solution were added to the 384-well plate. The final concentration of DMSO in the reaction system was 4%.
(§5) 7. The mixture was mixed well and then centrifuged and reacted at room temperature in dark for 60 min.
(§6) 8. Termination of the enzymatic reaction: 5 μL of 4× stop solution was taken with a transfer pipette to the wells of the 384-well plate, mixed and then centrifuged, and reacted at room temperature for 5 min.
(§7) 9. Development of the reaction: 5 μL of 4× detection solution was taken with a transfer pipette to the wells of the 384-well plate for color development, and the mixture was mixed and then centrifuged and reacted at room temperature for 60 min.
(§8) 10. The 384-well plate was placed into the Envision plate reader and the signal was detected using the appropriate program.
11. […]
(TR-FRET usually uses a lanthanide donor and a delayed reading to cut background.)

The target in the next assay is VEGFR-2 kinase (Homo sapiens (Human), UniProt P35968). Description: Assay of small molecular compounds for inhibiting the activity of VEGFR-2 kinase (LANCE TR-FRET). Format: biochemical. Conditions: VEGFR-2 tyrosine kinase, 60 min reaction. The protocol: Biological Example 2. Assay of Small Molecular Compounds for Inhibiting the Activity of VEGFR-2 Kinase
as §1, §2, §3
3. Addition of enzyme: 5 μL of 2× VEGFR-2 kinase solution (concentration was 0.5 nM) was taken with a transfer pipette to the corresponding reaction well of the 384-well plate, mixed well and pre-reacted at room temperature for 30 minutes.
4. 2.5 μL 4× Ultra ULight™-JAK-1 (Tyr1023) Peptide (concentration was 200 nM)/ATP (concentration was 40 μM) mixture was taken with a transfer pipette to the corresponding reaction well of the 384-well plate.
as §4
6. Positive control: 2.5 μL/well 4× substrate/ATP mixture, 2.5 μL/well 1× Kinase Assay Buffer containing 16% DMSO, and 5 μL/well 2× VEGFR-2 kinase solution were added to the 384-well plate. The final concentration of DMSO in the reaction system was 4%.
as §5, §6, §7, §8
11. Analysis and processing of the raw data:
The drug concentrations and the corresponding inhibition rates were input into GraphPad Prism5 for calculation, and the inhibition rate of the compounds were calculated as follows: inhibition rate (%)=(reading of positive well−reading of experimental well)/(reading of positive control well−reading of negative control well)×100%. Processing with GraphPad Prism5 software yielded the corresponding IC50 values (the concentration of the compound at which 50% of the highest inhibition of the enzyme is achieved).

Another assay deals with MHCC97H cells. Put plainly: Inhibitory activity on the proliferation of MHCC97H cells (CCK-8). It counts as cell-based. Conditions: Homo sapiens, MHCC97H cell proliferation, 72 hours of incubation. The protocol:
Biological Example 3. Assay of the Inhibitory Activity of Small Molecular Compounds on the Proliferation of MHCC97H Cells
The specific steps of the assay are as follows:
1. Dilution of compounds: a total of 9 concentrations were obtained using a 3-fold gradient dilution from the highest concentration of 5000 nM (the maximum final concentration of the drug used in this assay was 5000 nM, and the minimum final concentration was 0.76 nM).
2. MHCC97H cells were collected, then transferred to a 15 mL centrifuge tube, and centrifuged at 1000 rpm for 5 minutes.
3. The supernatant was discarded, and the complete medium was added and pipetted evenly, 10 μL of cell suspension was taken out and mixed evenly with 10 μL of 0.4% trypan blue, the counting was carried out with a cell counter, and the number and survival rate of cells were recorded;
4. The cell suspension was seeded into a 96-well plate at 5000 cells/80 μL per well;
5. 20 μL of the corresponding 5× compound solution diluted with the medium mentioned above was added to each well and mixed evenly;
6. After 72 hours of incubation, 10 μL of CCK-8 reagent was added to each well and incubated for another 2 hours (the reaction time can be adjusted according to the color depth);
7. The OD value was read at 450 nm on a multi-function plate reader.
8. Data processing: cell survival rate (%)=[(As−Ab)/(Ac−Ab)]*100%
As: OD value of assay well (medium containing cells, CCK-8, compound),
Ac: OD value of control well (medium containing cells, CCK-8),
Ab: OD value of blank well (CCK-8, medium without cell and compound),
The values were then imported into Graphpad Prism5 software for curve fitting, and IC50 was calculated.
Table 3 lists the assay results of the inhibitory activity of some compounds disclosed herein on the proliferation of the MHCC97H cell line.

c-MET kinase, sequence (P08581 25-1390): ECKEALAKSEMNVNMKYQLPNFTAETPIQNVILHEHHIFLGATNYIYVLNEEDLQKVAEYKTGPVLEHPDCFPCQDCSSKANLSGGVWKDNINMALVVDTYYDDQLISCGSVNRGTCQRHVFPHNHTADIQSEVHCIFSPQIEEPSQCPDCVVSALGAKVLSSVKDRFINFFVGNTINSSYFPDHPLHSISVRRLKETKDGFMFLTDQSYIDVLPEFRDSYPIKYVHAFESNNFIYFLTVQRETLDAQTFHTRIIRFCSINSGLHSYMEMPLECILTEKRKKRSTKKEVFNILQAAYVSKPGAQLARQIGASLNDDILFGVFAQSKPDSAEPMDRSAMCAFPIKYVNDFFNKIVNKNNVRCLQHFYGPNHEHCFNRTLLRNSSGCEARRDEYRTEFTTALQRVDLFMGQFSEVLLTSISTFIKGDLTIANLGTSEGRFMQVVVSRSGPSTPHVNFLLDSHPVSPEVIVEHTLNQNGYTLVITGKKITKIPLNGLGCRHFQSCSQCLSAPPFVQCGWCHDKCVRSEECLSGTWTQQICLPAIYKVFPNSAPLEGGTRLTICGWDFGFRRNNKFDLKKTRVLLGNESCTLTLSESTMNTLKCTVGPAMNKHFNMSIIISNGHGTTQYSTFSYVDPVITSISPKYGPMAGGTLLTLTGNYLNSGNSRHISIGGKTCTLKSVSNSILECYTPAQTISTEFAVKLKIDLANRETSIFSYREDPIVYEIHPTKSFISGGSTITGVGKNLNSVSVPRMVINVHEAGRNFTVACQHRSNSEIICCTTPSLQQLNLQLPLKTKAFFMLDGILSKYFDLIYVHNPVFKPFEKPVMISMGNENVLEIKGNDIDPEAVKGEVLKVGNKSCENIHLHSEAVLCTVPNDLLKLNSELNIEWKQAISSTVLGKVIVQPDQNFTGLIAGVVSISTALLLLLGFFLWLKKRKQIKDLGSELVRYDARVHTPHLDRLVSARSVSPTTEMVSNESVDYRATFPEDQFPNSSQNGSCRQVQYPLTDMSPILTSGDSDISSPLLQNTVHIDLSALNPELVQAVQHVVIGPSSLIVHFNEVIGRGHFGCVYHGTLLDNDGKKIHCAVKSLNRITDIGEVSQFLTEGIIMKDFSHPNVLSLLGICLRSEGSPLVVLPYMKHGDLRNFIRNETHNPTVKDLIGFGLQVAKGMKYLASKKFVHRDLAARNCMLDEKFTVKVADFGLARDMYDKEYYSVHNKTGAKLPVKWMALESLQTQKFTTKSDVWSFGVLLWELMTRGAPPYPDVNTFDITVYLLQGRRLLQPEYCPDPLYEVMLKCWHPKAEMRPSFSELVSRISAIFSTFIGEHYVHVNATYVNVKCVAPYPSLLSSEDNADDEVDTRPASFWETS
VEGFR-2 kinase, sequence (P35968 20-1356): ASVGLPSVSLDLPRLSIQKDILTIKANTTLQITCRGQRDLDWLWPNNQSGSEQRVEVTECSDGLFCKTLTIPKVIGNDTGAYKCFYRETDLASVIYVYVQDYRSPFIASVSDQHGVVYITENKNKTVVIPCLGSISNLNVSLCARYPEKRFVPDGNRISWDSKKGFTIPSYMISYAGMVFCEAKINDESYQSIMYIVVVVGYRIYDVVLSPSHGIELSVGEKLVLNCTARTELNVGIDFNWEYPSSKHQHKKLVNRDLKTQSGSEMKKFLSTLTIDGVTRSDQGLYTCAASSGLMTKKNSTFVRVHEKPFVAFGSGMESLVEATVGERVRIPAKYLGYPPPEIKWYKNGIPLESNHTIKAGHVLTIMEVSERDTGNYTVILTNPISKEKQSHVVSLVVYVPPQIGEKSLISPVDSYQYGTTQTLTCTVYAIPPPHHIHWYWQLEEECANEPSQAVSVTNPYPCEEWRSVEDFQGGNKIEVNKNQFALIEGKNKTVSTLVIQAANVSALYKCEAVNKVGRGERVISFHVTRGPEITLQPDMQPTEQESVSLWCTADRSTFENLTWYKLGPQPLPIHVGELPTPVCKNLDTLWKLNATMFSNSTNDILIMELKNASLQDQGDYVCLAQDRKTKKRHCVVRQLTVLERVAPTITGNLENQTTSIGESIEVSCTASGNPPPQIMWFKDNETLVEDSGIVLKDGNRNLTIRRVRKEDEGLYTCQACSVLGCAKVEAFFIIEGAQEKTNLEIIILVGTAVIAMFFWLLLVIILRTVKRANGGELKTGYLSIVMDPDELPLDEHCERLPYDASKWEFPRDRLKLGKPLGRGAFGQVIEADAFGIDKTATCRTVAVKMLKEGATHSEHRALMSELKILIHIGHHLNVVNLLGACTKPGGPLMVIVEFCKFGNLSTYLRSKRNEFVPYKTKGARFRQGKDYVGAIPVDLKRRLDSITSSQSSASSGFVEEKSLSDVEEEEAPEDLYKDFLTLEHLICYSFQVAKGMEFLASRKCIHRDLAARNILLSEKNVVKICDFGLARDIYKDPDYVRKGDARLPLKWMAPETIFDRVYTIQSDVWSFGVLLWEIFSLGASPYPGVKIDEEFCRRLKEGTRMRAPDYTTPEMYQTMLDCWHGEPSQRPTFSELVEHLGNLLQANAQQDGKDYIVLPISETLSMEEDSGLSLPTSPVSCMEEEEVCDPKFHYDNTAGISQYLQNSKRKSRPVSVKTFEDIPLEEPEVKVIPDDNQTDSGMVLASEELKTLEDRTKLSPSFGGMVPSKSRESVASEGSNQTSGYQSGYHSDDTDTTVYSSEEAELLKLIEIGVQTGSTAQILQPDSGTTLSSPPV

For the compound `O=C(Nc1ccc(F)cc1)C1(C(=O)Nc2ccc(Oc3ccnc4cc(OCC5CC5)c5c(c34)OCCO5)c(F)c2)CC1` [Example 11, N-(4-((5-(cyclopropylmethoxy)-2,3-dihydro-[1,4]dioxino[2,3-f]quinolin-10-yl)oxy)-3-fluorophenyl)-N-(4-fluorophenyl)cyclopropan-1,1-dicarboxamide], at c-MET kinase, the IC50 lay in the range of 50 to 500 nM.
In the case of `CC(C)COc1cc2nccc(Oc3ccc(NC(=O)C4(C(=O)Nc5ccc(F)cc5)CC4)cc3F)c2c2c1OCCO2` [Example 12, N-(4-((5-(isobutyloxy)-2,3-dihydro-[1,4]dioxino[2,3-f]quinolin-10-yl)oxy)-3-fluorophenyl)-N-(4-fluorophenyl)cyclopropan-1,1-dicarboxamide], the concentration for half-maximal inhibition (IC50) on c-MET kinase was in the range of 50 to 500 nM.
`O=C(Nc1ccc(F)cc1)C1(C(=O)Nc2ccc(Oc3ccnc4cc(OC5CCOCC5)c5c(c34)OCCO5)c(F)c2)CC1` [Example 18, N-(3-fluoro-4-((5-((tetrahydropyran-4-yl)oxy)-2,3-dihydro-[1,4]dioxino[2,3-f]quinolin-10-yl)oxy)phenyl)-N-(4-fluorophenyl)cyclopropan-1,1-dicarboxamide] registered an IC50 on VEGFR-2 kinase of 50 to 500 nM.
As to `CC(=O)N1CCN(CCCOc2cc3nccc(Oc4ccc(NC(=O)C5(C(=O)Nc6ccc(F)cc6)CC5)cc4F)c3c3c2OCCO3)CC1` [Example 19], the figures for the IC50 at VEGFR-2 kinase, on c-MET kinase and in the assay with MHCC97H cells were ≤ 50 nM, ≤ 50 nM and < 50 nM, respectively.
Turning to `N#CCOc1cc2nccc(Oc3ccc(NC(=O)C4(C(=O)Nc5ccc(F)cc5)CC4)cc3F)c2c2c1OCCO2` [Example 20, N-(4-((5-(cyanomethoxy)-2,3-dihydro-[1,4]dioxino[2,3-f]quinolin-10-yl)oxy)-3-fluorophenyl)-N-(4-fluorophenyl)cyclopropan-1,1-dicarboxamide], the 50% inhibitory concentration (IC50) was 50 to 500 nM at VEGFR-2 kinase and < 50 nM in the assay with MHCC97H cells.
As to `CC1(N)CCN(CCCOc2cc3nccc(Oc4ccc(NC(=O)C5(C(=O)Nc6ccc(F)cc6)CC5)cc4F)c3c3c2OCCO3)CC1` [Example 30, N-(3-fluoro-4-((5-(3-(4-amino-4-methylpiperidin-1-yl)propoxy)-2,3-dihydro-[1,4]dioxino[2,3-f]quinolin-10-yl)oxy)phenyl)-N-(4-fluorophenyl)cyclopropan-1,1-dicarboxamide], the IC50 in the assay on MHCC97H cells is < 500 nM.
For `O=C(Nc1ccc(F)cc1)C1(C(=O)Nc2ccc(Oc3ccnc4cc(OCCO)c5c(c34)OCCO5)c(F)c2)CC1` [Example 32, N-(3-fluoro-4-((5-(2-hydroxyethoxy)-2,3-dihydro-[1,4]dioxino[2,3-f]quinolin-10-yl)oxy)phenyl)-N-(4-fluorophenyl)cyclopropan-1,1-dicarboxamide], in the assay with MHCC97H cells, the IC50 is < 50 nM.
Still for that read-out and setting: with `NC1(COc2cc3nccc(Oc4ccc(NC(=O)C5(C(=O)Nc6ccc(F)cc6)CC5)cc4F)c3c3c2OCCO3)CC1` [Example 33, N-(4-((5-((1-aminocyclopropyl)methoxy)-2,3-dihydro-[1,4]dioxino[2,3-f]quinolin-10-yl)oxy)-3-fluorophenyl)-N-(4-fluorophenyl)cyclopropan-1,1-dicarboxamide] the figure was < 50 nM; with `COc1cc2nccc(Oc3cc(Cl)c(NC(=O)C4(C(=O)Nc5ccc(F)cc5)CC4)cc3F)c2c2c1OCCO2` [Example 35, N-(2-chloro-5-fluoro-4-((5-methoxy-2,3-dihydro-[1,4]dioxino[2,3-f]quinolin-10-yl)oxy)phenyl)-N-(4-fluorophenyl)cyclopropan-1,1-dicarboxamide], < 50 nM.
For the compound `O=C(Nc1ccc(F)cc1)C1(C(=O)Nc2ccc(Oc3ccnc4cc(OCCCN5CCOCC5)c5c(c34)OCCO5)cc2Cl)CC1` [Example 36, N-(2-chloro-4-((5-(3-morpholinopropoxy)-2,3-dihydro-[1,4]dioxino[2,3-f]quinolin-10-yl)oxy)phenyl)-N-(4-fluorophenyl)cyclopropan-1,1-dicarboxamide], the IC50 against VEGFR-2 kinase is 50 to 500 nM; with MHCC97H cells, < 50 nM.

The term IC50 denotes the point on the concentration scale where inhibition reaches its midpoint.

The values above are taken from patent US11407760B2, “Dioxinoquinoline compounds, preparation method and uses thereof” (BEIJING SCITECH-MQ PHARMACEUTICALS LIMITED, priority 2018, dated 2022).
